Assay results published in patent publication US20060258581A1, “Methods and composition for derepressions of IAP-inhibited caspase” (priority 2001, published 2006).
Entries after “also recorded” stand apart in the source; their conditions may differ. Read-outs that look alike come from different tables or passages of the source.

Assays:
[1] = test system: PPC1 prostate cancer cells; assay: PPC1 prostate cancer xenograft in Balb/C nu-/nu- mice; type: in vivo; conditions: 30 mg/kg i.p. for 2 or 3 days
Source text: Similar data was obtained using TPI 1396-22 (see FIGS. 33a and 33b). […] In FIG. 33b, the mice were sacrificed at day 19 and the tumors excised and weighed.

Jurkat leukemia cells [2] = assay: Jurkat leukemia cell death, Annexin V/propidium iodide flow cytometry; type: cell-based
[3] = test system: caspase-3 and caspase-7 activity in Jurkat cells; assay: Caspase-3 and caspase-7 activity in whole Jurkat cells, cell permeable substrate; type: cell-based; conditions: 8 μM, 20 hours
Jurkat leukemia cells [4] = assay: Jurkat leukemia cell death, Annexin V/propidium iodide flow cytometry; type: cell-based; conditions: for cells killed: one day treatment
Procedure: The following assay was used to test the ability of individual compounds from the TPI 1396 and TPI 1391 libraries to induce apoptosis of cultured tumor cell lines. Each of the compounds listed in Table IX was individually added to Jurkat leukemia cells (6.25×10^5 cells/mL) in RPMI containing 2.5% FBS at various concentrations for 20 hours. After incubation, cells were washed and stained with FITC-conjugated Annexin V antibody and propidium iodide (Biovision; Mountain View, Calif.). Cells were incubated for 20 minutes at room temperature in the dark and fluorescence was measured by flow cytometry (FACScan, Immunocytometry system; Becton-Dickinson; San Jose, Calif.). Cells staining positive for Annexin V were deemed non-viable.
The TPI I396-34 and TPI 1391-28 compounds were further tested as set forth below.

[5] = test system: Jurkat and HeLa tumor cell lines; assay: Tumor cell lines Jurkat and HeLa, 2 days, annexin-V; type: cell-based; design: dose or concentration left out as unconfirmed
Procedure: (§1) After 2 days, cell viability was assessed by annexin-V staining.

HeLa cells = assay: Transfected HeLa cells, apoptosis by Annexin V; type: cell-based; conditions: 5 μM, 20 hours
Procedure: In addition to transfecting the cells with full-length XIAP, analogous assays were performed with HeLa cells transfected with plasmids over-expressing various XIAP mutants. […] The mutant was produced by site-directed mutagenesis to modify positions 148, 219, 223, 314 and 323 to contain alanine. HeLa cells were also transiently transfected with plasmids encoding Bcl-XL, an anti-apoptotic protein that operates upstream of caspases to suppress Cytochrome C release from mitochondria. HeLa cells (2.5×10^5) were seeded onto six well plates in 2 mL DMEM H21 with 5% FBS. After 24 hrs, cells were transfected (Gene Porter) with plasmids. […] Both floating and adherent cells were then recovered from cultures, washed, and apoptosis was determined by Annexin V staining using flow cytometry.
Bcl-XL over-expression did afford resistance to traditional anticancer drugs such as etoposide and CrmA (a caspase-8 inhibitor), and protected cells from apoptosis induced by TRAIL, confirming that these anti-apoptotic proteins were functional in these experiments.

XIAP-inhibited caspase-3 = target: T1, XIAP-inhibited caspase-3 (Homo sapiens, UniProt P98170); assay: IAP derepression assay: Ac-DEVD-AFC hydrolysis by caspase-3 in the presence of GST-XIAP; type: biochemical; conditions: in words
T1 construct: in a caspase derepression assay using full length XIAP; made in house; host or cells: bacteria
Procedure: The ratio of Vmax for hydrolysis of Ac-DEVD-AFC in the presence and absence of the candidate mixture was calculated and used to identify those that contain an agent that derepresses an IAP-inhibited caspase.
Each mixture was aliquoted in a 25 microliter volume and in duplicate to a well of a 96 well microtiter plate. […] Fluorescence of liberated AFC was immediately detected from each well for 30 minutes at 30 second intervals. The Vmax for hydrolysis of AC-DEVD-AFC from each well was measured using the softmax software package.

full length XIAP = full length XIAP (Homo sapiens, UniProt P98170); assay: Potency of IAP antagonists in vitro (Table VIII; caspase derepression / SMAC competition with full length XIAP)
[6] = test system: tumor cells pulsed with specific antigen, antigen-specific T cells; assay: Antigen-specific CTL cytotoxicity, 51Cr release; type: cell-based; conditions: 10 μM, 4 hours
Procedure: After 4 hours, ^51Cr release was measured. Data shown in FIG. 39 are expressed as a percentage of total release induced by detergent lysis, and data represent mean±standard deviation of duplicate determinations.

[7] = test system: PC-3 and LNCaP prostate cancer cell lines; assay: Clonogenic survival (colony formation) assay; type: cell-based; conditions: Homo sapiens
Procedure: In addition to short-term cytotoxicity assays selected polyphenylurea compounds were tested for effects on clonogenic survival of cancer cells in colony formation assays, which can be considered a more stringent test of anticancer activity.

[8] = test system: PPC1, ALVA31, DU145 and HeLa cells; assay: Combination with TRAIL; type: cell-based; conditions: 1 µM
Procedure: Similar tests of the effects of polyphenyl urea compounds on apoptosis induction by the biological agent TRAIL, an apoptosis inducing member of the Tumor Necrosis Factor (TNF) family were also performed.

[9] = test system: Du145 prostate cancer cells; assay: Combination with anticancer drugs, MTT assay; type: cell-based; conditions: 10 μM, 48 hours
Procedure: The percentage of viable cells relative to control was determined using a MTT (3-(4,5-dimethylthiazolyl-2)-2,5-diphenyltetrazolium bromide) assay which is commercially available (Sigma). […] Similar results were obtained for PPC1 (FIG. 31b) and PC3 (FIG. 31c) prostate cancer cells treated with VP16, DOX, or TAXOL, and for H460 (FIG. 31d) lung cancer cells treated with VP16 or DOX.

[10] = test system: mouse embryo fibroblasts, human prostate epithelial cells, peripheral blood lymphocytes; assay: Normal cells (MEFs, human prostate epithelial cells, PBLs), 2 days, annexin-V; type: cell-based; design: dose or concentration left out as unconfirmed
Procedure: as §1

[11] = test system: normal bone marrow mononuclear cells; assay: Normal bone marrow mononuclear cells versus Jurkat, Annexin V, 20 hours; type: cell-based; conditions: 5 μM
Procedure: After incubation, cells were washed, stained with FITC-conjugated Annexin V antibody and propidium iodide, and fluorescence measured by flow cytometry as described above.

full length XIAP, sequence (P98170 whole entry): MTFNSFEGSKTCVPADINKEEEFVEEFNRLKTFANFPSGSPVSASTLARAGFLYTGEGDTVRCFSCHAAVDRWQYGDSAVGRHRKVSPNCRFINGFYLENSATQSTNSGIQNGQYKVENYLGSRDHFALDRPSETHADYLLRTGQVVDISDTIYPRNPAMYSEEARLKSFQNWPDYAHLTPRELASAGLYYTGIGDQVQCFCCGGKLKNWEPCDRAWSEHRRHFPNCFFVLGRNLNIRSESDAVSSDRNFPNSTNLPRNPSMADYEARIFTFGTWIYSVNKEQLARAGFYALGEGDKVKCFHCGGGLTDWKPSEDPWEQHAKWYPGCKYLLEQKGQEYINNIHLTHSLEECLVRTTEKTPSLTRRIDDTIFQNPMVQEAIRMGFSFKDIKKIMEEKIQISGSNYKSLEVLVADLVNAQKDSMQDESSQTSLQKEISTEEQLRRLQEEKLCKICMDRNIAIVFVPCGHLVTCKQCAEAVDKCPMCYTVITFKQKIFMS
T1 sequence (P98170 whole entry): as above

SMILES: COc1ccc(CCN2CCC[C@@H]2CN(C(=O)Nc2ccccc2)[C@@H](CNC(=O)Nc2ccccc2)CC2CCCCC2)cc1 [TPI 1396-34]
- tumor size / growth, PPC1 xenograft [1]: reduced tumor size; also recorded: significantly slowed the rate of growth
- time to half-maximal killing (Jurkat leukemia cells [2]; 10 µM): approximately 12 hours
- apoptosis in the presence of zVAD-fmk (Jurkat leukemia cells [2]; 100 μM zVAD-fmk, 20 hours): suppressible
- caspase activation in whole cells [3]: induced caspase activation
- cells killed (Jurkat leukemia cells [4]; 5 μM): about 75%
- cells killed (Jurkat leukemia cells [4]; 8 μM): ~85%
- time to maximum killing (Jurkat leukemia cells [4]; 10 µM): about 24 hours
- cytotoxicity at 1 µM (Jurkat leukemia cells [4]; Homo sapiens, Jurkat, 20 h, 1 μM, 20 hours, read-out: % nonviable cells): 13%
- cytotoxicity at 5 µM (Jurkat leukemia cells [4]; Homo sapiens, Jurkat, 20 h, 5 μM (first column headed 5), 20 hours, read-out: % nonviable cells): 73%
- cytotoxicity at 5 µM (Jurkat leukemia cells [4]; Homo sapiens, Jurkat, 20 h, 5 μM (second column headed 5), 20 hours, read-out: % nonviable cells): 51%
- cytotoxicity at 10 µM (Jurkat leukemia cells [4]; Homo sapiens, Jurkat, 20 h, 10 μM, 20 hours, read-out: % nonviable cells): 62%
- cytotoxicity at 25 µM (Jurkat leukemia cells [4]; Homo sapiens, Jurkat, 20 h, 25 μM, 20 hours, read-out: % nonviable cells): 83%
- cytotoxicity at 50 µM (Jurkat leukemia cells [4]; Homo sapiens, Jurkat, 20 h, 50 μM, 20 hours, read-out: % nonviable cells): 85%
- EC50 (Jurkat leukemia cells [4]; Homo sapiens, Jurkat, 24 h, one-day exposure, read-out: EC50 for killing Jurkat leukemia cells): ~6.5 µM
- increase of killing above background [5]: > 4 fold
- apoptosis in HeLa cells over-expressing Bcl-XL (HeLa cells): not blocked
- apoptosis in HeLa cells over-expressing full-length XIAP (HeLa cells): protected
- apoptosis in HeLa cells transfected with a control vector (HeLa cells): induced apoptosis
- activity in the caspase derepression assay using full length XIAP (XIAP-inhibited caspase-3): active XIAP inhibitors
- EC50 (full length XIAP): 77.1 µM
- CTL-mediated lysis of tumor targets [6]: sensitizes tumor targets to CTL-mediated lysis
- activity at 10 µM ([7]; 10 μM, read-out: colony formation, % of control): < 5%
- EC50 ([7]; 3 days culture, colonies counted one week later, read-out: average EC50 dose, clonogenic survival): 3 µM
- sensitization to TRAIL-induced apoptosis [8]: sensitized
- effect on dose-dependent cytotoxicity of VP16, DOX and TAXOL [9]: significantly increased dose-dependent cytotoxicity
- increase of percentage cell death above background [10]: less than one-fold
- toxicity to normal bone marrow cells [11]: little toxicity
